Source: ChEMBL document CHEMBL2331144, “Synthesis and anticancer activity of analogues of phenstatin, with a phenothiazine A-ring, as a new class of microtubule-targeting agents” (Bioorg Med Chem Lett, 2013)

How the values were obtained:
[1] = system: UACC-62; assay: Growth inhibition of human UACC62 cells after 48 hrs by sulforhodamine B assay; assay type: functional; conditions: UACC-62, 48 h
[2] = system: M14; assay: Growth inhibition of human M14 cells after 48 hrs by sulforhodamine B assay; assay type: functional; conditions: M14, 48 h
[3] = system: IGROV-1; assay: Growth inhibition of human IGROV1 cells after 48 hrs by sulforhodamine B assay; assay type: functional; conditions: IGROV-1, 48 h
[4] = system: OVCAR-3; assay: Growth inhibition of human OVCAR3 cells after 48 hrs by sulforhodamine B assay; assay type: functional; conditions: OVCAR-3, 48 h
[5] = system: ACHN; assay: Growth inhibition of human ACHN cells after 48 hrs by sulforhodamine B assay; assay type: functional
[6] = system: DU-145; assay: Growth inhibition of human DU145 cells after 48 hrs by sulforhodamine B assay; assay type: functional; conditions: DU-145, 48 h
[7] = system: SN12C; assay: Growth inhibition of human SN12C cells after 48 hrs by sulforhodamine B assay; assay type: functional
[8] = system: PC-3; assay: Growth inhibition of human PC3 cells after 48 hrs by sulforhodamine B assay; assay type: functional; conditions: PC-3, 48 h
[9] = system: A498; assay: Growth inhibition of human A498 cells after 48 hrs by sulforhodamine B assay; assay type: functional; conditions: A498, 48 h
[10] = system: 786-0; assay: Growth inhibition of human 786-0 cells after 48 hrs by sulforhodamine B assay; assay type: functional; conditions: 786-0, 48 h
[11] = system: CAKI-1; assay: Growth inhibition of human CAKI-1 cells after 48 hrs by sulforhodamine B assay; assay type: functional; conditions: CAKI-1, 48 h
[12] = organism: Ovis aries; assay: Inhibition of sheep brain tubulin polymerization at 100 uM using DAPI by fluorimetry
[13] = system: MOLT-4; assay: Growth inhibition of human MOLT4 cells after 48 hrs by sulforhodamine B assay; assay type: functional; conditions: MOLT-4, 48 h
[14] = system: COLO 205; assay: Growth inhibition of human COLO205 cells after 48 hrs by sulforhodamine B assay; assay type: functional; conditions: COLO 205, 48 h
[15] = system: NCI-H23; assay: Growth inhibition of human NCI-H23 cells after 48 hrs by sulforhodamine B assay; assay type: functional; conditions: NCI-H23, 48 h
[16] = system: RPMI-8226; assay: Growth inhibition of human RPMI8226 cells after 48 hrs by sulforhodamine B assay; assay type: functional; conditions: RPMI-8226, 48 h
[17] = system: A549; assay: Growth inhibition of human A549/ATCC cells after 48 hrs by sulforhodamine B assay; assay type: functional; conditions: A549, 48 h
[18] = system: HCT-15; assay: Growth inhibition of human HCT15 cells after 48 hrs by sulforhodamine B assay; assay type: functional; conditions: HCT-15, 48 h
[19] = Growth inhibition of human NCI-ADR-RES cells after 48 hrs by sulforhodamine B assay; assay type: functional
[20] = system: CCRF-CEM; assay: Growth inhibition of human CCRF-CEM cells after 48 hrs by sulforhodamine B assay; assay type: functional
[21] = system: SR; assay: Growth inhibition of human SR cells after 48 hrs by sulforhodamine B assay; assay type: functional
[22] = system: NCI-H522; assay: Growth inhibition of human NCI-H522 cells after 48 hrs by sulforhodamine B assay; assay type: functional; conditions: NCI-H522, 48 h
[23] = system: SK-MEL-5; assay: Growth inhibition of human SK-MEL-5 cells after 48 hrs by sulforhodamine B assay; assay type: functional; conditions: SK-MEL-5, 48 h
[24] = system: SK-MEL-28; assay: Growth inhibition of human SK-MEL-28 cells after 48 hrs by sulforhodamine B assay; assay type: functional; conditions: SK-MEL-28, 48 h
[25] = system: HL-60(TB); assay: Growth inhibition of human HL-60(TB) cells after 48 hrs by sulforhodamine B assay; assay type: functional; conditions: HL-60, 48 h
[26] = system: HOP-92; assay: Growth inhibition of human HOP92 cells after 48 hrs by sulforhodamine B assay; assay type: functional; conditions: HOP-92, 48 h
[27] = system: K562; assay: Growth inhibition of human K562 cells after 48 hrs by sulforhodamine B assay; assay type: functional; conditions: K562, 48 h
[28] = system: KM12; assay: Growth inhibition of human KM12 cells after 48 hrs by sulforhodamine B assay; assay type: functional; conditions: KM12, 48 h
[29] = Inhibition of sheep brain tubulin polymerization using DAPI by fluorimetry; set-up: species or system Ovis aries
[30] = system: MCF7; assay: Growth inhibition of human MCF7 cells after 48 hrs by sulforhodamine B assay; assay type: functional; conditions: MCF7, 48 h
[31] = system: UACC-257; assay: Growth inhibition of human UACC257 cells after 48 hrs by sulforhodamine B assay; assay type: functional; conditions: UACC-257, 48 h
[32] = system: SF-295; assay: Growth inhibition of human SF295 cells after 48 hrs by sulforhodamine B assay; assay type: functional; conditions: SF-295, 48 h
[33] = system: SK-MEL-2; assay: Growth inhibition of human SK-MEL-2 cells after 48 hrs by sulforhodamine B assay; assay type: functional; conditions: SK-MEL-2, 48 h
[34] = Growth inhibition of human HCC2998 cells after 48 hrs by sulforhodamine B assay; assay type: functional; conditions: HCC 2998, 48 h
[35] = system: NCI-H460; assay: Growth inhibition of human NCI-H460 cells after 48 hrs by sulforhodamine B assay; assay type: functional; conditions: NCI-H460, 48 h
[36] = system: SF-268; assay: Growth inhibition of human SF268 cells after 48 hrs by sulforhodamine B assay; assay type: functional; conditions: SF-268, 48 h
[37] = system: OVCAR-8; assay: Growth inhibition of human OVCAR8 cells after 48 hrs by sulforhodamine B assay; assay type: functional; conditions: OVCAR-8, 48 h
[38] = system: SNB-75; assay: Growth inhibition of human SNB75 cells after 48 hrs by sulforhodamine B assay; assay type: functional; conditions: SNB-75, 48 h
[39] = system: LOX IMVI; assay: Growth inhibition of human LOXIMVI cells after 48 hrs by sulforhodamine B assay; assay type: functional
[40] = system: HT-29; assay: Growth inhibition of human HT-29 cells after 48 hrs by sulforhodamine B assay; assay type: functional; conditions: HT-29, 48 h
[41] = system: SK-OV-3; assay: Growth inhibition of human SKOV3 cells after 48 hrs by sulforhodamine B assay; assay type: functional; conditions: SK-OV-3, 48 h
[42] = system: OVCAR-4; assay: Growth inhibition of human OVCAR4 cells after 48 hrs by sulforhodamine B assay; assay type: functional; conditions: OVCAR-4, 48 h
[43] = system: HCT-116; assay: Growth inhibition of human HCT116 cells after 48 hrs by sulforhodamine B assay; assay type: functional; conditions: HCT-116, 48 h
[44] = Growth inhibition of human Hs 578T cells after 48 hrs by sulforhodamine B assay; assay type: functional
[45] = system: BT-549; assay: Growth inhibition of human BT549 cells after 48 hrs by sulforhodamine B assay; assay type: functional; conditions: BT-549, 48 h
[46] = system: RXF 393; assay: Growth inhibition of human RXF393 cells after 48 hrs by sulforhodamine B assay; assay type: functional; conditions: RXF 393, 48 h
[47] = system: MDA-MB-468; assay: Growth inhibition of human MDA-MB-468 cells after 48 hrs by sulforhodamine B assay; assay type: functional; conditions: MDA-MB-468, 48 h
[48] = system: HOP-62; assay: Growth inhibition of human HOP62 cells after 48 hrs by sulforhodamine B assay; assay type: functional; conditions: HOP-62, 48 h
[49] = system: MDA-MB-231; assay: Growth inhibition of human MDA-MB-231 cells after 48 hrs by sulforhodamine B assay; assay type: functional; conditions: MDA-MB-231, 48 h
[50] = system: MDA-MB-435; assay: Growth inhibition of human MDA-MB-435 cells after 48 hrs by sulforhodamine B assay; assay type: functional; conditions: MDA-MB-435, 48 h
[51] = system: SW-620; assay: Growth inhibition of human SW620 cells after 48 hrs by sulforhodamine B assay; assay type: functional; conditions: SW-620, 48 h
[52] = system: UO-31; assay: Growth inhibition of human UO31 cells after 48 hrs by sulforhodamine B assay; assay type: functional; conditions: UO-31, 48 h
[53] = system: SF-539; assay: Growth inhibition of human SF539 cells after 48 hrs by sulforhodamine B assay; assay type: functional; conditions: SF-539, 48 h
[54] = system: TK-10; assay: Growth inhibition of human TK10 cells after 48 hrs by sulforhodamine B assay; assay type: functional; conditions: TK-10, 48 h

## COc1ccc(C(=O)N2c3ccccc3Sc3ccccc32)cc1N
[1]
  GI50: 127 nM
[2]
  GI50: 90 nM
[3]
  GI50: 721 nM
[4]
  GI50: 101 nM
[5]
  GI50: 472 nM
[6]
  GI50: 291 nM
[7]
  GI50: 798 nM
[8]
  GI50: 310 nM
[9]
  GI50: 129 nM
[10]
  GI50: 524 nM
[11]
  GI50: 290 nM
[12]
  inhibition: 99%
[13]
  GI50: 380 nM
[14]
  GI50: 193 nM
[15]
  GI50: 437 nM
[16]
  GI50: 328 nM
[17]
  GI50: 187 nM
[18]
  GI50: 73 nM
[19]
  GI50: 80 nM
[20]
  GI50: 268 nM
[21]
  GI50: 30 nM
[22]
  GI50: 35 nM
[23]
  GI50: 53 nM
[24]
  GI50: 407 nM
[25]
  GI50: 245 nM
[26]
  GI50: 277 nM
[27]
  GI50: 40 nM
[28]
  GI50: 97 nM
[29]
  IC50: 11800 nM
[30]
  GI50: 93 nM
[31]
  GI50: 1940 nM
[32]
  GI50: 71 nM
[33]
  GI50: 134 nM
[34]
  GI50: 683 nM
[35]
  GI50: 289 nM
[36]
  GI50: 958 nM
[37]
  GI50: 366 nM
[38]
  GI50: 257 nM
[39]
  GI50: 881 nM
[40]
  GI50: 151 nM
[41]
  GI50: 244 nM
[42]
  GI50: 1210 nM
[43]
  GI50: 166 nM
[44]
  GI50: 424 nM
[45]
  GI50: 877 nM
[46]
  GI50: 130 nM
[47]
  GI50: 50 nM
[48]
  GI50: 226 nM
[49]
  GI50: 310 nM
[50]
  GI50: 29 nM
[51]
  GI50: 90 nM
[52]
  GI50: 650 nM
[53]
  GI50: 164 nM
[54]
  GI50: 575 nM

## COc1ccc(C(=O)c2cc(OC)c(OC)c(OC)c2)cc1O [PHENSTATIN]
[4]
  GI50: 2 nM
[6]
  GI50: 34 nM
[9]
  GI50: 380 nM
[12]
  inhibition: 99%
[29]
  IC50: 3430 nM
[30]
  GI50: 437 nM
[32]
  GI50: 52 nM
[35]
  GI50: 6 nM

## COc1cc([C@@H]2c3cc4c(cc3C[C@H]3COC(=O)[C@@H]32)OCO4)cc(OC)c1OC [DESOXYPODOPHYLLOTOXIN]
[12]
  inhibition: 100%
[29]
  IC50: 1760 nM
